Source: patent US11503829B2, “Pesticidal compositions and related methods” (CJB Applied Technologies, LLC, priority 2020, dated 2022)
Where two headings read alike, the source gives them in different places.

Tests used:
[1] = system: black rust (Puccinia graminis tritici); assay type: in vivo; conditions: wheat, tebuconazole 2 fl oz/acre, no adjuvant, 21 days after treatment
[2] = system: natural population of lowland brush; experiment: Woody brush control with Metsulfuron Methyl; conditions: MSM 1/5 oz/gal, no adjuvant; scale 1-5
[3] = system: Didymella fungus that is resistant to azoxystrobin; experiment: Petri dish radial growth bioassay, agar impregnated with Quadris and/or benzyl alcohol; assay type: cell-based
[4] = Quadris 0 oz/ac, Benzyl Alcohol 6 oz/ac

Q: With `CC(C)(C)C(O)(CCc1ccc(Cl)cc1)Cn1cncn1` (stereo not shown) [Teb only, tebuconazole] as the molecule, how does the “Disease Severity Rating” value ([1]; mix water 35° F.) read?
A: The value was 51.3.

Q: And the “Disease Severity Rating” value ([1]; mix water 70° F.)?
A: The value was 47.

Q: Which “Observation at 28 DAT” value [2] does the source give for `COC(=O)c1ccccc1S(=O)(=O)NC(=O)Nc1nc(C)nc(OC)n1` [MSM Alone] here?
A: The value was 2.0.

Q: For `OCc1ccccc1` [Benzyl Alcohol only, benzyl alcohol], which “Radial growth, 24 Hours” value [3, 4] is on record?
A: Its value is 4.83.

Q: What about the “Radial growth, 48 Hours” value [3, 4] of the same molecule?
A: Its value is 8.42.

Q: What about the “Radial growth, 72 Hours” value [3, 4] of the same molecule?
A: The value was 8.7.

Q: And the “Radial growth, 96 Hours” value [3, 4]?
A: The value was 13.98.

Q: And the “Radial growth, 120 Hours” value [3, 4]?
A: Its value is 18.72.

Q: What about the “Radial growth, 144 Hours” value [3, 4] of the same molecule?
A: Its value is 25.05.

Q: And the “Reduction in fungal growth (observation)” value ([3]; benzyl alcohol alone, petri dish)?
A: Its value is “no reduction in fungal growth”.
